# Measurements published in US12678453B2, “Aerosolized formulations of HIV protease inhibitors for the treatment of airway reflux” (The Medical College of Wisconsin, Inc., priority 2020, dated 2026).
# “Also recorded” adds a separate entry of the source.
# Assays:
# [1] = test system: mouse model of laryngopharyngeal reflux (LPR); test: in vivo mouse model of LPR (laryngeal wounding and pepsin instillation, H&E histology); conditions: for laryngeal histology (H&E) / pepsin-mediated laryngeal injury: pepsin pH7 group; for laryngeal histology (H&E): solvent (saline/PBS pH7) group
# From the text: An in vivo mouse model of direct application of pepsin, to mimic laryngeal exposure during LPR, and treatment with select HIV protease inhibitors by either gavage (oral systemic delivery) or aerosolized delivery (inhaled local delivery) was used. […] Each group contained 3 mice. Six-week-old female Jackson A/J mice (Jackson Laboratory, Bar Harbor, ME), weighed one day after arrival, then weekly, on Mondays thereafter.
# Avertin was the preferred anesthetic for the brief application time needed as it has a rapid induction, produces a short surgical anesthesia, and has a rapid recovery. […] For this experiment, isoflurane inhalation was used. The isoflurane, self-scavenging machine, was operated at 3% isoflurane with 2.5 liters of air per minute (LPM). The induction chamber was charged for 3-5 minutes prior to the mice being anesthetized. Mice were placed in the induction chamber for 3-5 minutes prior to any wounding or administrations. Anesthesia records were kept according to IACUC policy.
# Animals secured by a copper wire attached to the board from which the mice were suspended by their upper teeth. This caused the lower jaw to fall open naturally, exposing the larynx and permitting visualization with a Zeiss microscope at 6× magnification. […] Under direct visualization, the subglottis, glottis, and supraglottis regions were superficially scratched interiorly from distal to proximal as the needle was pulled out gently, making a mild abrasion. This procedure was performed twice, with one week between woundings.
# To examine the effect pepsin at acid and nonacid pH, animals were treated for 2 weeks with laryngeal instillation of pepsin (20 μL at 0.3 mg/ml, pH 7.0 or pH 4.0) at 24, 48, and 72 h post wounding procedure. During weeks 3 and 4, animals were treated with laryngeal instillation for 3 days per week. Mice were sacrificed and samples collected on Friday of the fourth week.
# The twelve mice in the aerosol groups were condition in the nose-only exposure chamber (Intox) on three separate days by exposure to dry air for 10 min. Beginning the Monday (day 1) of the next week, aerosols and gavages were performed on the mice Monday through Friday (5 exposures). The aerosols and gavages continued Monday-Friday for three more weeks, with the final week consisting of 4 total exposure days, Monday-Thursday, (19 total) with the mice sacrificed and tissues harvested on Friday. Each mouse received two woundings and 12 solvent or pepsin administrations. Wounding and intratracheal administrations were concurrent with the aerosol and gavage treatments. The first wounding was performed on day 2, followed by solvent or pepsin administrations on days 3, 4, and 5. The second wounding was performed on day 8, followed by solvent or pepsin administrations on days 9, 10, and 11. In weeks 3 and 4, mice received solvent or pepsin administrations on days 16, 17, and 18 and days 23, 24, and 25. Day 26 was sacrifice and tissue harvest.
# A 10 mL suspension of drug in ethanol was placed in the baffle, such that the concentration would remain constant at the equilibrium solubility. Droplets of ethanol containing dissolve drug were generated by an ultrasonic atomizer (nominal frequency 1.7 MHz) entrained by air at a flow rate of 0.5 LPM with a custom-built glass baffle (University of Minnesota, Department of Chemistry Glass Shop). The aerosol cloud was then passed through a cylindrical drying column containing an annular ring of charcoal. The ethanol is removed and the emanating dry aerosol particles of pure drug were then directed into the exposure chamber.
# The mass deposited on the filters in a fixed collection time was measured gravimetrically, and with the collection time, allowed calculation of the total output rate (mg/min). The aerosol concentration (mass/volume of air) was calculated by dividing the total output rate by the air flow rate (0.5 LPM).
# solubility = format: physicochemical; conditions: co-crystallization solution
# Method: Lyophilized porcine pepsin A (Worthington Biochemical Corporation) was dissolved in water at 200 mg/mL. All ligand stock solutions, except for saquinavir mesylate, were prepared as saturated solutions in DMSO in order to dissolve the maximal amount of ligand. The solutions were centrifuged and an appropriate volume of the supernatant was added to the pepsin solution so that final mixture contained 1.6% of the ligand stock by volume. The mixtures were incubated at room temperature for 1 h, centrifuged for 10 min at 31,000 rcf, and the supernatant was used for crystallization experiments. […] In order to maximize the solubility of saquinavir in the crystallization solution, we tested solutions from the CryoSol screen (Molecular Dimensions) (PMID 28626721). Mixture SM2 consisting of 37.5% v/v dioxane, 25% v/v DMSO, 12.5% v/v ethylene glycol, 12.5% v/v 1,2-propanediol, and 12.5% v/v glycerol allowed us to increase the amount of ligand solution in the co-crystallization mixture without damaging the protein. The saturated solution of saquinavir in SM2 was treated in the same manner as solutions of other ligands except that its amount in the solution with pepsin was increased to 5% by volume.
Compound,"pepsin-mediated laryngeal injury (multi-layered, reactive epithelia and cell apoptosis) ([1]; aerosol, 12 mg/kg/d)",laryngeal histology (H&E) / pepsin-mediated laryngeal injury ([1]; aerosol),laryngeal histology (H&E) ([1]; aerosol),laryngeal histology (H&E) / pepsin-mediated laryngeal injury ([1]; gavage),"laryngeal histology (H&E) / pepsin-mediated laryngeal injury ([1]; gavage, listed as Darunavir)",laryngeal histology (H&E) ([1]; gavage),solubility (solubility)
"CC(C)CN(C[C@@H](O)[C@H](Cc1ccccc1)NC(=O)O[C@H]1CO[C@H]2OCC[C@H]21)S(=O)(=O)c1ccc(N)cc1 [darunavir, [(3a S,4R,6aR)-2,3,3a,4,5,6a-hexahydrofuro[2,3-b]furan-4-yl] N-[(2S,3R)-4-[(4-aminophenyl)sulfonyl-(2-methylpropyl)amino]-3-hydroxy-1-phenylbutan-2-yl]carbamate]",effective in preventing pepsin mediated injury,normal histology; also recorded: mild protection against pepsin-mediated damage,normal histology,appeared similar,mild reactive epithelia in the pepsin group but less than pepsin control,"mild reactive epithelia in the solvent group, but less than pepsin control; also recorded: mild reactivity (rare intraepithelial lymphocytes)",–
"CC(C)(C)NC(=O)[C@@H]1C[C@@H]2CCCC[C@@H]2CN1C[C@@H](O)[C@H](Cc1ccccc1)NC(=O)[C@H](CC(N)=O)NC(=O)c1ccc2ccccc2n1 [saquinavir, (2S)—N-[(2S,3R)-4-[(3 S,4aS,8aS)-3-(tert-butylcarbamoyl)-3,4,4a,5,6,7,8,8a-octahydro-1H-isoquinolin-2-yl]-3-hydroxy-1-phenylbutan-2-yl]-2-(quinoline-2-carbonylamino)butanediamide]",–,–,–,–,–,–,low solubility
